According to patent publication US8802082B2, “Rhodamine derivatives for photodynamic diagnosis and treatment” (Université de Montreal, priority 1999, dated 2014):

Key:
K-562 cell line = assay: In vitro phototoxicity, cell viability in the K-562 cell line procedure (argon ion laser 514.5 nm); type: cell-based
Protocol: To ascertain the photochemotherapeutic potential of 4, 5-dibromorhodamine 110 n-butyl ester hydrobromide (DBBE), in vitro phototoxicity was evaluated in the K-562 cell line procedure described. The cells were incubated with increasing concentrations of DBBE and the cell viability was measured at different time points following photodynamic therapy.
The photo toxicity in vitro of rhodamine B n-butyl ester (RBBE) was evaluated in the K-562 cell line procedure, in order to assess its photochemotherapeutic potential. Comparison was made to the induced phototoxicity of rhodamine 123 (RH123) and of rhodamine nB-butyl ester hydrochloride. Cell viability was evaluated 2 and 20 hours after photodynamic therapy. […] Rhodamine 123 has no effect on cell viability, even at exposures of 5 J/cm^2. Phototoxicity of 4,5-dibromorhodamine 110 n-butyl ester hydrobromide and rhodamine B n-butyl ester hydrochloride were only assessed against the cell line K562. However, we anticipate that their activity will be similar against T cells.

[1] = system: normal mouse long term culture of bone marrow and hematopoietic colonies; assay: Phototoxicity against hematopoietic progenitor cell cultures (long term culture of bone marrow, semi-solid colony assays); type: cell-based
Excerpt: However, as reported for rhodamine 123, the LTC (Long Term Culture) establishment is more sensitive to the dyes but the number of viable committed precursor and stem cells remains unaffected. […] This is in agreement with results obtained previously in other laboratories using rhodamine 123.

SMILES	effect on cell viability (K-562 cell line; even at exposures of 5 J/cm^2)	establishment of normal mouse long term culture of bone marrow and formation of hematopoietic colonies in semi-solid assays after photodynamic therapy [1]	cell viability of K562 cells after photodynamic therapy (K-562 cell line; 10 µg/ml, 5 J/cm^2 argon ion laser 514.5 nm, less than 20 hours after irradiation)	cell viability after photodynamic therapy (K-562 cell line; 10 μg/ml, 0.5 J/cm^2 at 514.5 nm, less than 24 hours after irradiation)
COC(=O)c1ccccc1-c1c2ccc(=N)cc-2oc2cc(N)ccc12.Cl [Rhodamine 123, Rhodamine 123 (2-(6-amino-3-imino-3H-xanthen-9-yl)benzoic acid methyl ester) hydrochloride, reference compound]	no effect	minimally impaired		
CCCCOC(=O)c1ccccc1-c1c2ccc(=NCC)cc-2oc2cc(N(CC)CC)ccc12.Cl [RBBE, Rhodamine B n-butyl ester (2-(6-diethyl amino-3-ethyl imino-3H-xanthen-9-yl)-benzoic acid) n-butyl diester hydrochloride]		minimally impaired	significantly suppress	
Br.CCCCOC(=O)c1ccccc1-c1c2ccc(=N)c(Br)c-2oc2c(Br)c(N)ccc12 [DBBE, 4,5-dibromorhodamine 110 (2-(4,5-dibromo-6-amino-3-imino-3H-xanthen-9-yl)-benzoic acid) n-butyl ester hydrobromide]		minimally impaired		completely suppress
